According to patent US11723908B2, “Quinazoline derivatives as antitumor agents” (SUZHOU ZANRONG PHARMA LIMITED, priority 2018, dated 2023):

Key:
HER2 = HER2 (Homo sapiens (Human), UniProt P04626); test: BT474 cellular assay (HER2 inhibition), phospho-HER2 ELISA; type: cell-based; details: inhibition of phosphor HER2, BT474 cells, 2 hours compound incubation
Procedure: Assay a) BT474 Cellular Assay (HER2 Inhibition) Inhibition of phosphor HER2 was determined by enzyme-linked immunosorbent assay (ELISA) in BT474 cells. BT474 cell line was purchased from [NT] number HTB-20). Human Phospho-ErbB2 ELISA kit was purchased from R&D systems (catalog number DYC1768). Day 1: When the cells reach 70-90% confluence, cells were trypsinized and re-suspended. 5000 cells per well were seeded to a 384-well plate. The plate was incubated at 37° C. with 5% CO2 for 24 hours. ELISA plate was coated with 2 μg/ml capture antibody, which was incubated at 4° C. overnight. Day 2: 25 nl compounds was dosed by Echo from source plate and the 384-well plate was incubated at 37° C. for 2 hours. 30 μl lysis buffer was added to each well and the 384-well plate was shaken softly at 4° C. for 30 minutes. The ELISA plate was washed, blocked and incubated at room temperature for 1-2 hours. The blocked ELISA plate was washed and 20 μl cell lysate was transferred from the 384-well plate to the ELISA plate, which was incubated overnight at 4° C. Day 3: The ELISA plate was washed 3 times. 25 μl/well detection antibody was added (diluted 1 by 2000 in 1% BSA in PBS). After 2 hours of incubation with detection antibody, the ELISA plate was washed 3 times, 25 μl/well TMB substrate was added and incubated for 10-15 minutes before stop solution was added. Absorbance at 450 nm and 570 nm was read within 30 minutes after adding the stop solution. […] The IC50 results are provided in Table 1 for some exemplary compounds.

wt-EGFR = wt-EGFR (Homo sapiens (Human), UniProt P00533); test: NCI H838 cellular assay (wt-EGFR inhibition), phospho-EGFR ELISA; type: cell-based; details: inhibition of phosphor wt-EGFR, NCI H838 cells, EGF 100 ng/ml
Sequence of wt-EGFR (P00533 25-1210): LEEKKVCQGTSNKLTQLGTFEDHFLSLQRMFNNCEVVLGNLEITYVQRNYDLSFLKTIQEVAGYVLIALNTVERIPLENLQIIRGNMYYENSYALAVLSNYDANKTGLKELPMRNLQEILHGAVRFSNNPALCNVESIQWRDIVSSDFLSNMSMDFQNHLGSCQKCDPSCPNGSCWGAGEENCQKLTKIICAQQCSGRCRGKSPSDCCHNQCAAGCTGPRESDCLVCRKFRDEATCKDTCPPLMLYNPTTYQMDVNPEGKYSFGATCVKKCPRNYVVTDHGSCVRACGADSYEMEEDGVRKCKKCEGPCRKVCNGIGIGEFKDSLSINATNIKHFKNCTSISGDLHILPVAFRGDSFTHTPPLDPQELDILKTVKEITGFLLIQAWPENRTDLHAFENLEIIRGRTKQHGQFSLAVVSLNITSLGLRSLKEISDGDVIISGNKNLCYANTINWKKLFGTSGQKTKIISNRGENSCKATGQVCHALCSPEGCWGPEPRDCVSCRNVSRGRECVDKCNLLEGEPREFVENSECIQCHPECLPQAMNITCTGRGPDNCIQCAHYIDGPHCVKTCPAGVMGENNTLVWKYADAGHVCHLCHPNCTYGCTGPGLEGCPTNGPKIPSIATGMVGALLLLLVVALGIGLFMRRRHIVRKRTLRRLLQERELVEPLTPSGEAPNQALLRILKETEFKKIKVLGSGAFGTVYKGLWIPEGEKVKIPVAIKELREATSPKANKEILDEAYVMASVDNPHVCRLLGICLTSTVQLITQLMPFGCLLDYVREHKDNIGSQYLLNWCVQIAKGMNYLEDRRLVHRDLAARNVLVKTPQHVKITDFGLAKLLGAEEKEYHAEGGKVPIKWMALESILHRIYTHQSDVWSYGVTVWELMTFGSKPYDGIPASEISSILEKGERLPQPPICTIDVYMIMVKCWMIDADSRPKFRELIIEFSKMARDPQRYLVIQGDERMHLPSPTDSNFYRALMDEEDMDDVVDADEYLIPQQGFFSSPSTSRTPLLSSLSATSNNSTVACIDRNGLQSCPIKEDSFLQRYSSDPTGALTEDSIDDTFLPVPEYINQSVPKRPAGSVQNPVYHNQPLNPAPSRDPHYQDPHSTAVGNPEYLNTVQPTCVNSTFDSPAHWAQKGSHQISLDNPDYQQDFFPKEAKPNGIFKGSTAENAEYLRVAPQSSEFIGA
Procedure: Assay b) NCI H838 Cellular Assay (Wt-EGFR Inhibition) Inhibition of phosphor wt-EGFR was determined by enzyme-linked immunosorbent assay (ELISA) in NCI H838 cells (ATCC, catalog number CRL-5844). Human Phospho-EGFR DuoSet IC ELISA kit was purchased from R&D systems (catalog number DYC1095). Day 1: When the cells reach 70-90% confluence, cells were trypsinized and re-suspended. 5000 cells per well were seeded to a 384-well plate. The plate was incubated at 37° C. with 5% CO2 for 24 hours. Day 2: Cell culture medium was replaced with 40 μL FBS-Free RPMI1640. After 2 hours of starvation, the 384-well plate was dosed with 40 nL of compounds by Echo from source plate and the 384-well plate was incubated at 37° C. with 5% CO2 for 2 hours. After 2 hours of incubation with compounds, EGF (final concentration at 100 ng/ml) was added to the plate which was incubated at 37° C. with 5% CO2 for 5-10 minutes. Medium was discarded from the plate and 30 μl/well lysis buffer was added to the plate which was incubated at 4° C. for 10 minutes. The cell lysates can be stored at −80° C. in cell plates but must be thawed at room temperature for at least 30 minutes prior to use and continuing the assay. ELISA plate was coated by diluting capture antibody to 4 μg/ml with PBS, and 25 μl/well was dispensed to 384 well UltraCruz® ELISA Plate, which was incubated at 4° C. overnight. Day 3: After the plates were washed three times with 100 μl/well of wash buffer, the plates were blocked by adding 75 μl of Block Buffer to each well and incubated at room temperature for 3 hours. After the plates were washed three times with 100 μl/well of wash buffer, 20 μl cell lysate was transferred to the blocked ELISA plate which was incubated for 2 hours at room temperature. After the plates were washed three times with 100 μl/well of wash buffer, 25 μl/well detection antibody (dilute 1 in 900 in assay buffer) was added the plate which was incubated for 2 hours, protected from light. After washed three times, 25 μl/well TMB substrate was added to the ELISA plate which was incubated for about 10-15 min, protected from light before addition of 25 μl/well stop solution. Absorbance was read at 450 nm and 570 nm within 30 minutes.

Sequence of HER2 (P04626 23-1255): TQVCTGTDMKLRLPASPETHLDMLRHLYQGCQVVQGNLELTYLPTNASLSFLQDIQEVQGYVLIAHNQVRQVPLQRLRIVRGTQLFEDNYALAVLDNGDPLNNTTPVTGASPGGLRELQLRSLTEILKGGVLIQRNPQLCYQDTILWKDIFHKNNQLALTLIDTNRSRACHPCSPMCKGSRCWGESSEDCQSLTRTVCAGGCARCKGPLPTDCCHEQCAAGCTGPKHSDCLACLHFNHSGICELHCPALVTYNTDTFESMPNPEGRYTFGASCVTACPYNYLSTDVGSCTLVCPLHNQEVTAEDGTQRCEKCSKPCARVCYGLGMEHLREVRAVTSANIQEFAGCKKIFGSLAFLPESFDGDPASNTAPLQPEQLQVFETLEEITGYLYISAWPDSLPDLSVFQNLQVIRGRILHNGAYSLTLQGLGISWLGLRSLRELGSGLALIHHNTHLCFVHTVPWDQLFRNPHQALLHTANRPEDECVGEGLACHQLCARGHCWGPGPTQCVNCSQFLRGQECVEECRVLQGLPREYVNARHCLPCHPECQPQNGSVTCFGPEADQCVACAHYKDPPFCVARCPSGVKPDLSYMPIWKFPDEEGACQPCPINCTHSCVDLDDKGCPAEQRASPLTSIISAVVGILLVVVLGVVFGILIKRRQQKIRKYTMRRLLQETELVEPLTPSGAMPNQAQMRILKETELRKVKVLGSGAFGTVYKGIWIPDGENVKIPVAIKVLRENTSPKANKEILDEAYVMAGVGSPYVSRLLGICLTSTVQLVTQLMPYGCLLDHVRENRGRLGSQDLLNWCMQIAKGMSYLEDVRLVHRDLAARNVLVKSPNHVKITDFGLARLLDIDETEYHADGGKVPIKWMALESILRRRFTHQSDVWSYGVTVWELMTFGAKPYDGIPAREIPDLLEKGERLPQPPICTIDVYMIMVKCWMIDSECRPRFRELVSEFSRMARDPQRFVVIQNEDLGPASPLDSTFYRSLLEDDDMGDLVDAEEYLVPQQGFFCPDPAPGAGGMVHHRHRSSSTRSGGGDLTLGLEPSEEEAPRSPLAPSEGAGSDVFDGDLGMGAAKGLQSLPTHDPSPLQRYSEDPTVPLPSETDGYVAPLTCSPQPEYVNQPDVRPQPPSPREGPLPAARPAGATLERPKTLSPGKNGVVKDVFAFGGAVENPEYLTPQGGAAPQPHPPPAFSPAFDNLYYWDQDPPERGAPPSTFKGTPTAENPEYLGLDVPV

Row | IC50 (HER2) [nM] | IC50 (wt-EGFR) [nM] | Structure (SMILES)
1 | 190 | > 10000 | Cc1cc(Nc2ncnc3ccc(NC4=NC(C)(C)CO4)c(N4CC(N(C)C)C4)c23)ccc1Oc1cc2ncnn2cn1 [Example 54, N4-(4-([1,2,4]triazolo[1,5-c]pyrimidin-7-yloxy)-3-methylphenyl)-N6-(4,4-dimethyl-4,5-dihydrooxazol-2-yl)-5-(3-(dimethylamino)azetidin-1-yl)quinazoline-4,6-diamine]
2 | 182 | 800 | COc1cc(O[C@@H]2CCN(C)CC2(F)F)c2c(Nc3ccc(Oc4cc5ncnn5cn4)c(C)c3)ncnc2c1 [Example 52, (R)—N-(4-([1,2,4]triazolo[1,5-c]pyrimidin-7-yloxy)-3-methylphenyl)-5-((3,3-difluoro-1-methylpiperidin-4-yl)oxy)-7-methoxyquinazolin-4-amine]
3 | 18 | 6300 | COc1ccc2ncnc(Nc3ccc(Oc4cc5ncnn5cn4)c(Cl)c3)c2c1O[C@H]1CCN(C)CC1(F)F [Example 34, (S)—N-(4-([1,2,4]triazolo[1,5-c]pyrimidin-7-yloxy)-3-chlorophenyl)-5-((3,3-difluoro-1-methylpiperidin-4-yl)oxy)-6-methoxyquinazolin-4-amine]
4 | 94 | > 10000 | COc1ccc2ncnc(Nc3ccc(Oc4cc5ncnn5cn4)c(C)c3)c2c1N1C[C@@H](N(C)C)[C@@H](F)C1 [Example 39, N-(4-([1,2,4]triazolo[1,5-c]pyrimidin-7-yloxy)-3-methylphenyl)-5-((3R,4S)-3-(dimethylamino)-4-fluoropyrrolidin-1-yl)-6-methoxyquinazolin-4-amine]
5 | 24 | 2030 | COc1ccc2ncnc(Nc3ccc(Oc4cc5ncnn5cn4)c(C)c3)c2c1N1CC2(C[C@H](F)CN2C)C1 (single isomer, unassigned) [Example 43]
6 | 20 |  | Cc1cc(Nc2ncnc3ccc(OC(C)C)c(O[C@H]4CCN(C)CC4(F)F)c23)ccc1Oc1cc2ncnn2cn1 [Example 30, (S)—N-(4-([1,2,4]triazolo[1,5-c]pyrimidin-7-yloxy)-3-methylphenyl)-5-((3,3-difluoro-1-methylpiperidin-4-yl)oxy)-6-isopropoxyquinazolin-4-amine]
7 | 179 |  | C=CC(=O)N1CCC=C(c2ccc3ncnc(Nc4ccc(Oc5cc6ncnn6cn5)c(C)c4)c3c2N2CC(N(C)C)C2)C1 [Example 82, 1-(5-(4-((4-([1,2,4]triazolo[1,5-c]pyrimidin-7-yloxy)-3-methylphenyl)amino)-5-(3-(dimethylamino)azetidin-1-yl)quinazolin-6-yl)-3,6-dihydropyridin-1(2H)-yl)prop-2-en-1-one]
8 | 48 |  | Cc1cc(Nc2ncnc3ccc(NC(=O)/C=C/[C@H]4CCCN4C)c(O[C@@H]4CCN(C)CC4(F)F)c23)ccc1Oc1cc2ncnn2cn1 [Example 95, (E)-N-(4-((4-([1,2,4]triazolo[1,5-c]pyrimidin-7-yloxy)-3-methylphenyl)amino)-5-(((R)-3,3-difluoro-1-methylpiperidin-4-yl)oxy)quinazolin-6-yl)-3-((R)-1-methylpyrrolidin-2-yl)acrylamide]
9 | 267 |  | Cc1cc(Nc2ncnc3ccc(NC(=O)/C=C/CN(C)C)c(O[C@@H]4CCN(C)CC4(F)F)c23)ccc1Oc1cc2ncnn2cn1 [Example 92, (R,E)-N-(4-((4-([1,2,4]triazolo[1,5-c]pyrimidin-7-yloxy)-3-methylphenyl)amino)-5-((3,3-difluoro-1-methylpiperidin-4-yl)oxy)quinazolin-6-yl)-4-(dimethylamino)but-2-enamide]
10 | 390 |  | C=CC(=O)N1CC=C(c2ccc3ncnc(Nc4ccc(Oc5cc6ncnn6cn5)c(C)c4)c3c2N2CC(N(C)C)C2)CC1 [Example 80, 1-(4-(4-((4-([1,2,4]triazolo[1,5-c]pyrimidin-7-yloxy)-3-methylphenyl)amino)-5-(3-(dimethylamino)azetidin-1-yl)quinazolin-6-yl)-3,6-dihydropyridin-1(2H)-yl)prop-2-en-1-one]
11 | 9.3 |  | Cc1cc(Nc2ncnc3ccc(OC(C)C)c(O[C@@H]4CCN(C)CC4(F)F)c23)ccc1Oc1cc2ncnn2cn1 [Example 29, (R)—N-(4-([1,2,4]triazolo[1,5-c]pyrimidin-7-yloxy)-3-methylphenyl)-5-((3,3-difluoro-1-methylpiperidin-4-yl)oxy)-6-isopropoxyquinazolin-4-amine]
12 | 27 |  | COc1ccc2ncnc(Nc3ccc(Oc4cc5ncnn5cn4)c(C)c3)c2c1N1CC[C@@H](N(C)C)C1 [Example 2, (R)—N-(4-([1,2,4]-triazolo[1,5-c]pyrimidin-7-yloxy)-3-methylphenyl)-5-(3-(dimethylamino)pyrrolidin-1-yl)-6-methoxyquinazolin-4-amine]
13 | 82 |  | COc1ccc2ncnc(Nc3ccc(Oc4cc5ncnn5cn4)c(C)c3)c2c1OC1CCN(C)CC1 [Example 5, N-(4-([1,2,4]triazolo[1,5-c]pyrimidin-7-yloxy)-3-methylphenyl)-6-methoxy-5-((1-methylpiperidin-4-yl)oxy)quinazolin-4-amine]
14 | 11 |  | COc1ccc2ncnc(Nc3ccc(Oc4cc5ncnn5cn4)c(C)c3)c2c1OC1CCNCC1(F)F (stereo not shown) [Example 76, N-(4-([1,2,4]triazolo[1,5-c]pyrimidin-7-yloxy)-3-methylphenyl)-5-((3,3-difluoropiperidin-4-yl)oxy)-6-methoxyquinazolin-4-amine]
15 | 11 |  | COc1ccc2ncnc(Nc3ccc(Oc4cc5ncnn5cn4)c(C)c3)c2c1O[C@@H]1CCN(C(C)C)CC1(F)F [Example 78, (R)-N-(4-([1,2,4]triazolo[1,5-c]pyrimidin-7-yloxy)-3-methylphenyl)-5-((3,3-difluoro-1-isopropylpiperidin-4-yl)oxy)-6-methoxyquinazolin-4-amine]
16 | 9.8 |  | COc1ccc2ncnc(Nc3ccc(Oc4cc5ncnn5cn4)c(C)c3)c2c1O[C@@H]1CCN(C2CC2)CC1(F)F [Example 79, (R)-N-(4-([1,2,4]triazolo[1,5-c]pyrimidin-7-yloxy)-3-methylphenyl)-5-((1-cyclopropyl-3,3-difluoropiperidin-4-yl)oxy)-6-methoxyquinazolin-4-amine]
17 | 35 |  | Cc1cc(Nc2ncnc3ccc(OC(F)F)c(O[C@@H]4CCN(C)CC4(F)F)c23)ccc1Oc1cc2ncnn2cn1 [Example 17, (R)—N-(4-([1,2,4]triazolo[1,5-c]pyrimidin-7-yloxy)-3-methylphenyl)-5-((3,3-difluoro-1-methylpiperidin-4-yl)oxy)-6-(difluoromethoxy)quinazolin-4-amine]
18 | 13 |  | COc1ccc2ncnc(Nc3ccc(Oc4cc5ncnn5cn4)c(C)c3)c2c1O[C@H]1CN(C)CC1(F)F [Example 75, (S)—N-(4-([1,2,4]triazolo[1,5-c]pyrimidin-7-yloxy)-3-methylphenyl)-5-((4,4-difluoro-1-methylpyrrolidin-3-yl)oxy)-6-methoxyquinazolin-4-amine]
19 | 9.9 |  | COc1ccc2ncnc(Nc3ccc(Oc4cc5ncnn5cn4)c(C)c3)c2c1O[C@@H]1CN(C)CC1(F)F [Example 74, (R)—N-(4-([1,2,4]triazolo[1,5-c]pyrimidin-7-yloxy)-3-methylphenyl)-5-((4,4-difluoro-1-methylpyrrolidin-3-yl)oxy)-6-methoxyquinazolin-4-amine]

Row | Structure (SMILES) | IC50 (HER2) [nM] | IC50 (wt-EGFR) [nM]
20 | COc1ccc2ncnc(Nc3ccc(Oc4cc5ncnn5cn4)c(C)c3)c2c1N1CC2C1CCN2CC(F)F (stereo not shown) [Example 68, N-(4-([1,2,4]triazolo[1,5-c]pyrimidin-7-yloxy)-3-methylphenyl)-5-(2-(2,2-difluoroethyl)-2,6-diazabicyclo[3.2.0]heptan-6-yl)-6-methoxyquinazolin-4-amine] | 6.4 | 
